Results on four compounds are retold here after ChEMBL document CHEMBL1122370 (J Med Chem, 1983).

For assay [1], the system named is Mus musculus. Put plainly: Average weight of the mouse after treating with 15 mg/kg dose for 7 days. Format: functional.
Assay [2] concerns Mus musculus. Put plainly: Average weight of the mouse after treating with 30 mg/kg dose for 7 days. The assay is classed as functional.
Assay [3] relates to Mus musculus. Kind of assay: Average weight of the mouse after treating with 60 mg/kg dose for 7 days. Format: functional.
Assay [4] deals with L1210. Put plainly: In vivo anti tumor activity against L1210 leukemia in 10 mice measured as median survival range at 60 mg/kg; Value ranges from(7-24). The assay is classed as functional, Mus musculus.
In assay [5] the test system is Mus musculus. Put plainly: Average weight of the mouse after treating with 15 mg/kg dose for 1 day. Format: functional.
Assay [6] relates to Mus musculus. Kind of assay: Average weight of the mouse after treating with 60 mg/kg dose for 1 day. The assay is classed as functional.
Assay [7] concerns Mus musculus. Kind of assay: Average weight of the mouse after treating with 30 mg/kg dose for 1 day. Format: functional.
The subject of assay [8] is L1210. Put plainly: In vivo antitumor activity against L1210 leukemia in 16 mice measured as T/C values; T/C = 16/9. Format: functional, Mus musculus.
For assay [9], the system named is L1210. Put plainly: In vivo antitumor activity against L1210 leukemia in 10 mice measured as median survival range at 15 mg/kg; Value ranges from(15-20). Format: functional, Mus musculus.
The test system of assay [10] is L1210. Put plainly: In vivo anti tumor activity against L1210 leukemia in 10 mice measured as Increased life span at 30 mg/kg. The following applies: Mus musculus. Format: functional.
Assay [11] relates to L1210. Kind of assay: In vivo anti tumor activity against L1210 leukemia in 5 mice measured as Increased life span. Format: functional, Mus musculus.
Assay [12] has as its system L1210. Put plainly: In vivo anti tumor activity against L1210 leukemia in 10 mice measured as median survival range at 30 mg/kg; Value ranges from(11-17). The assay is classed as functional, Mus musculus.
In assay [13] the test system is L1210. Put plainly: In vivo anti tumor activity against L1210 leukemia in 10 mice measured as Increased life span at 60 mg/kg. The assay is classed as functional. Particulars: Mus musculus.
The test system of assay [14] is L1210. Put plainly: In vivo antitumor activity against L1210 leukemia in 5 mice measured as Increased life span at 10 mg/kg. The assay is classed as functional. The following applies: Mus musculus.
Assay [15] relates to Mus musculus. Kind of assay: Average weight of the mouse after treating with 20 mg/kg dose for 1 day. The arrangement: unit not given here. Format: functional.
In assay [16] the test system is L1210. Put plainly: In vivo antitumor activity against L1210 leukemia in 5 mice measured as median survival range at 20 mg/kg; Value ranges from(17-25). Format: functional, Mus musculus.
Assay [17] deals with L1210. Kind of assay: In vivo antitumor activity against L1210 leukemia in 5 mice measured as Increased life span at 20 mg/kg. The assay is classed as functional. The following applies: Mus musculus.
In assay [18] the test system is L1210. Put plainly: In vivo antitumor activity against L1210 leukemia in 24 mice measured as T/C value; T/C = 24/9. The assay is classed as functional, Mus musculus.
Assay [19] relates to Mus musculus. Kind of assay: Average weight of the mouse after treating with 10 mg/kg dose for 7 days. The assay is classed as functional.
The subject of assay [20] is L1210. Put plainly: In vivo antitumor activity against L1210 leukemia in 15 mice measured as T/C values; T/C = 15/9. The assay is classed as functional, Mus musculus.
Assay [21] has as its system L1210. Kind of assay: In vivo antitumor activity against L1210 leukemia in 5 mice measured as median survival range at 10 mg/kg; Value ranges from(15-21). The assay is classed as functional, Mus musculus.
Assay [22] relates to Mus musculus. Put plainly: Average weight of the mouse after treating with 20 mg/kg dose for 7 days. Format: functional.
In assay [23] the test system is Mus musculus. Put plainly: Average weight of the mouse after treating with 10 mg/kg dose for 1 day. Format: functional. The arrangement: unit not given here.
For assay [24], the system named is Mus musculus. Put plainly: Average weight change in mouse after treating with 20 mg/kg dose for 7 days. The assay is classed as functional. The arrangement: unit not given beside the values.
The test system of assay [25] is Mus musculus. Kind of assay: Average weight of the mouse after treating with 40 mg/kg dose for 1 day. The assay is classed as functional. The arrangement: unit not given here.
The subject of assay [26] is L1210. Put plainly: In vivo antitumor activity against L1210 leukemia in 5 mice measured as median survival range at 20 mg/kg; Value ranges from (11-17). Format: functional, Mus musculus.
Assay [27] concerns Mus musculus. Put plainly: Average weight change in mouse after treating with 40 mg/kg dose for 7 days. Format: functional.
For assay [28], the system named is L1210. Kind of assay: In vivo anti tumor activity against L1210 leukemia in 5 mice measured as Increased life span at 20 mg/kg. The assay is classed as functional. The following applies: Mus musculus.
Assay [29] has as its system L1210. Kind of assay: In vivo antitumor activity against L1210 leukemia in 5 mice measured as median survival range at 40 mg/kg; Value ranges from (16-19). The assay is classed as functional, Mus musculus.
The test system of assay [30] is L1210. Kind of assay: In vivo anti tumor activity against L1210 leukemia in 13 mice measured as T/C values at 20 mg/kg; T/C = 13/9. Format: functional, Mus musculus.
Assay [31] relates to L1210. Put plainly: In vivo anti tumor activity against L1210 leukemia in 5 mice measured as Increased life span at 40 mg/kg. Particulars: Mus musculus. The assay is classed as functional.
In assay [32] the test system is L1210. Put plainly: In vivo anti tumor activity against L1210 leukemia in 19 mice measured as T/C values; T/C = 19/9. The assay is classed as functional, Mus musculus.
The subject of assay [33] is L1210. Put plainly: In vivo antitumor activity against L1210 leukemia in 13 mice measured as T/C values; T/C = 13/9. The assay is classed as functional, Mus musculus.
The subject of assay [34] is L1210. Kind of assay: In vivo antitumor activity against L1210 leukemia in 5 mice measured as median survival range at 40 mg/kg; Value ranges from (12-20). The assay is classed as functional, Mus musculus.
The subject of assay [35] is L1210. Put plainly: In vivo antitumor activity against L1210 leukemia in 5 mice measured as median survival range at 20 mg/kg; Value ranges from (11-15). Format: functional, Mus musculus.
In assay [36] the test system is L1210. Kind of assay: In vivo antitumor activity against L1210 leukemia in 5 mice measured as Increased life span at 40 mg/kg. The assay is classed as functional. The following applies: Mus musculus.
Assay [37] has as its system L1210. Kind of assay: In vivo antitumor activity against L1210 leukemia in 14 mice measured as T/C values; T/C = 14/9. The assay is classed as functional, Mus musculus.

SMILES strings stand for the structures.

Turning to `CCCCOC(=O)CCC(NC(=O)c1ccc(N(C)Cc2cnc3nc(N)nc(N)c3n2)cc1)C(=O)OCCCC` (stereo not drawn), the Weight change in the assay with Mus musculus [1] is given as 4.2; in the assay on Mus musculus [2] it was 4.1; with Mus musculus [3], 5.1. The Range is 24 in the assay on L1210 [4], 20 in the assay on L1210 [9] and 17 with L1210 [12]. Further, the results for the Average weight in the assay on Mus musculus [5], with Mus musculus [6] and in the assay on Mus musculus [7] were 25.3, 24.9 and 26.1, respectively. This compound displayed a T/C with L1210 [8] of 9. Besides, in the assay on L1210 [10], the ILS (commonly the gain in survival time of treated over control animals, in per cent) at 30 mg/kg was found to be 66%. In the assay on L1210 [11], this compound came in with an ILS of 77%. For the same compound, in the assay with L1210 [13], the ILS at 60 mg/kg was determined as 88%.
In the assay on L1210 [14], `CN(Cc1cnc2nc(N)nc(N)c2n1)c1ccc(C(=O)NC(CCC(=O)OCc2c(Cl)cccc2Cl)C(=O)OCc2c(Cl)cccc2Cl)cc1` (stereo not drawn) displayed an ILS at 10 mg/kg of 66%. Further, the Average weight was determined as 22.4 in the assay on Mus musculus [15] and 21.6 in the assay with Mus musculus [23]. For the same compound, the Range in the assay with L1210 [16] is given as 25; with L1210 [21], 21. In the assay on L1210 [17], the ILS at 20 mg/kg stood at 167%. Besides, the T/C with L1210 [18] and in the assay on L1210 [20] was 9 in each case. The values for the Weight change in the assay on Mus musculus [19] and in the assay on Mus musculus [22] were 1.4 and 0.8, respectively.
As to `CCCOC(=O)CCC(NC(=O)c1ccc(N(C)Cc2cnc3nc(N)nc(N)c3n2)cc1)C(=O)OCCC` (stereo not drawn), the Weight change in the assay with Mus musculus [24] came out at 2.1; in the assay with Mus musculus [27] it was 0.3. Besides, the Average weight is 21.1 in the assay with Mus musculus [25] and 21.4 with Mus musculus [15]. The Range in the assay on L1210 [26] came out at 17; in the assay on L1210 [29] it was 16. In the assay with L1210 [28], this compound showed an ILS at 20 mg/kg of 44%. The values for the T/C in the assay on L1210 [30] and in the assay on L1210 [32] were 13 and 19, respectively. In addition, the ILS at 40 mg/kg in the assay with L1210 [31] was found to be 100%.
For the compound `CCOCCOC(=O)CCC(NC(=O)c1ccc(N(C)Cc2cnc3nc(N)nc(N)c3n2)cc1)C(=O)OCCOCC` (stereo not drawn), the Weight change in the assay with Mus musculus [24] amounted to 1.5; with Mus musculus [27], 0.5. Moreover, the Average weight with Mus musculus [25] stood at 23.1; in the assay with Mus musculus [15] it was 22.6. In addition, the T/C with L1210 [33] and with L1210 [37] was 9 in each case. In the assay on L1210 [17], this compound yielded an ILS at 20 mg/kg of 44%. Further, the Range in the assay with L1210 [34] turned out to be 20; in the assay on L1210 [35], 15. This compound gave an ILS at 40 mg/kg with L1210 [36] of 55%.
